Measured values reported in the supplement of paper PMC7017272.
± gives the standard deviation of the averaged measurements.

Tests used:
Conditions in all cases: treatment time: 3 days
UT-SCC-24A = test: maximal % inhibition of viability relative to DMSO; higher = stronger effect
Procedure: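 HNSCC cell lines (500 cells/well, 384-well) were cultured on plastic, on top of (2D) or embedded (3D) in Matrigel or human leiomyoma matrix Myogel (500 ug/mL; Myogel 3D mixed with rat collagen I). Cells were treated for 3 days with 5 ten-fold concentrations of each drug, and viability was read by CellTiter-Glo. Viability was normalised to DMSO (0% inhibition) and 100 uM benzethonium chloride (100% inhibition) controls and fitted with the FIMM DSRT pipeline to give IC50 (nM), maximal % inhibition and the drug sensitivity score (DSS). Suffixes _1/_2/_3 on drug names are replicates.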

UT-SCC-24B [1] = test: drug sensitivity score (DSS); higher = more sensitive; extreme values may be limits of the assay
Outline: (§1)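 Viability of HPV-negative HNSCC cell lines was measured by CellTiter-Glo 2.0 luminescence. Cells were seeded at 500 cells/well in 384-well plates on plastic, on Matrigel- or Myogel-coated wells (500 µg/mL), or embedded in Matrigel or Myogel plus rat collagen I, then given compounds at five 10-fold concentrations for 3 days, with signals normalised to vehicle (0.1% DMSO) and cell-killing control wells. Fitting of percent-inhibition dose–response curves in the FIMM pipeline yielded IC50, maximal inhibition and drug sensitivity score.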

UT-SCC-28 [2] = test: as above
Outline: as §1

UT-SCC-40 [3] = test: as above
Outline: as §1

UT-SCC-44 [4] = test: as above
Outline: as §1

UT-SCC-73 [5] = test: as above
Outline: as §1

UT-SCC-81 [6] = test: as above
Outline: as §1

UT-SCC-8 [7] = test: as above
Outline: as §1

UT-SCC-106A = test: relative IC50 (midpoint of the fitted curve; maximal inhibition may be below 50%); higher = less potent
Outline: as §1

UT-SCC-14 = test: as above
Outline: as §1

UT-SCC-24B [8] = test: as above
Outline: as §1

UT-SCC-28 [9] = test: as above
Outline: as §1

UT-SCC-40 [10] = test: as above
Outline: as §1

UT-SCC-42A = test: as above
Outline: as §1

UT-SCC-42B = test: as above
Outline: as §1

UT-SCC-44 [11] = test: as above
Outline: as §1

UT-SCC-73 [12] = test: as above
Outline: as §1

UT-SCC-81 [13] = test: as above
Outline: as §1

UT-SCC-8 [14] = test: as above
Outline: as §1

[15] = culture condition: embedded in Matrigel
[16] = culture condition: embedded in Myogel + collagen I
[17] = culture condition: on top of Matrigel
[18] = culture condition: on top of Myogel
[19] = culture condition: plastic 2D (no matrix)

- relative IC50 (UT-SCC-106A; [15]): > 989 nM
- relative IC50 (UT-SCC-106A; [17]): > 989 nM
- relative IC50 (UT-SCC-106A; [18]): > 989 nM
- relative IC50 (UT-SCC-14; [16]): > 989 nM
- relative IC50 (UT-SCC-14; [18]): > 989 nM
- relative IC50 (UT-SCC-24B [8]; [15]): 55.5 nM
- relative IC50 (UT-SCC-24B [8]; [16]): 22.1 nM
- relative IC50 (UT-SCC-24B [8]; [17]): 33.4 nM
- relative IC50 (UT-SCC-24B [8]; [18]): 31.3 nM
- relative IC50 (UT-SCC-24B [8]; [19]): 34.7 nM
- relative IC50 (UT-SCC-28 [9]; [15]): > 989 nM
- relative IC50 (UT-SCC-28 [9]; [19]): > 989 nM
- relative IC50 (UT-SCC-40 [10]; [18]): > 989 nM
- relative IC50 (UT-SCC-40 [10]; [19]): > 989 nM
- relative IC50 (UT-SCC-42A; [15]): > 989 nM
- relative IC50 (UT-SCC-42A; [16]): > 989 nM
- relative IC50 (UT-SCC-42A; [17]): > 989 nM
- relative IC50 (UT-SCC-42A; [18]): > 989 nM
- relative IC50 (UT-SCC-42A; [19]): > 989 nM
- relative IC50 (UT-SCC-42B; [15]): > 989 nM
- relative IC50 (UT-SCC-42B; [17]): > 989 nM
- relative IC50 (UT-SCC-42B; [18]): > 989 nM
- relative IC50 (UT-SCC-42B; [19]): > 989 nM
- relative IC50 (UT-SCC-44 [11]; [15]): > 989 nM
- relative IC50 (UT-SCC-44 [11]; [16]): > 989 nM
- relative IC50 (UT-SCC-73 [12]; [16]): > 989 nM
- relative IC50 (UT-SCC-73 [12]; [18]): > 989 nM
- relative IC50 (UT-SCC-73 [12]; [19]): > 989 nM
- relative IC50 (UT-SCC-81 [13]; [16]): > 989 nM
- relative IC50 (UT-SCC-81 [13]; [18]): > 989 nM
- relative IC50 (UT-SCC-81 [13]; [19]): > 989 nM
- relative IC50 (UT-SCC-8 [14]; [15]): > 989 nM
- relative IC50 (UT-SCC-8 [14]; [19]): > 989 nM
Compound: Cn1c(=O)n(-c2ccc(C(C)(C)C#N)cc2)c2c3cc(-c4cnc5ccccc5c4)ccc3ncc21 [Dactolisib]
- maximal % inhibition of viability (UT-SCC-24A; [15]): 34.6 ± 9%
- maximal % inhibition of viability (UT-SCC-24A; [16]): 14.9 ± 11%
- maximal % inhibition of viability (UT-SCC-24A; [17]): 14.7 ± 5.4%
- maximal % inhibition of viability (UT-SCC-24A; [18]): 4.17 ± 3.1%
- maximal % inhibition of viability (UT-SCC-24A; [19]): 6.6 ± 2.1%
- drug sensitivity score (UT-SCC-24B [1]; [15]): 11.6 ± 0.64 DSS
- drug sensitivity score (UT-SCC-24B [1]; [16]): 16.3 ± 0.52 DSS
- drug sensitivity score (UT-SCC-24B [1]; [17]): 13.4 ± 0.46 DSS
- drug sensitivity score (UT-SCC-24B [1]; [18]): 13.6 ± 0.51 DSS
- drug sensitivity score (UT-SCC-24B [1]; [19]): 12.8 ± 0.25 DSS
- drug sensitivity score (UT-SCC-28 [2]; [15]): 0 DSS
- drug sensitivity score (UT-SCC-28 [2]; [16]): 0.133 ± 0.23 DSS
- drug sensitivity score (UT-SCC-28 [2]; [17]): 0.1 ± 0.17 DSS
- drug sensitivity score (UT-SCC-28 [2]; [19]): 0 DSS
- drug sensitivity score (UT-SCC-40 [3]; [15]): 0.5 ± 0.87 DSS
- drug sensitivity score (UT-SCC-40 [3]; [16]): 0 DSS
- drug sensitivity score (UT-SCC-40 [3]; [17]): 0 DSS
- drug sensitivity score (UT-SCC-40 [3]; [18]): 0 DSS
- drug sensitivity score (UT-SCC-40 [3]; [19]): 0 DSS
- drug sensitivity score (UT-SCC-44 [4]; [15]): 0 DSS
- drug sensitivity score (UT-SCC-44 [4]; [16]): 0 DSS
- drug sensitivity score (UT-SCC-44 [4]; [17]): 0 DSS
- drug sensitivity score (UT-SCC-44 [4]; [18]): 0 DSS
- drug sensitivity score (UT-SCC-44 [4]; [19]): 0.9 ± 1.6 DSS
- drug sensitivity score (UT-SCC-73 [5]; [15]): 0 DSS
- drug sensitivity score (UT-SCC-73 [5]; [16]): 0 DSS
- drug sensitivity score (UT-SCC-73 [5]; [17]): 0 DSS
- drug sensitivity score (UT-SCC-73 [5]; [18]): 0 DSS
- drug sensitivity score (UT-SCC-73 [5]; [19]): 0 DSS
- drug sensitivity score (UT-SCC-81 [6]; [15]): 3.7 ± 3.4 DSS
- drug sensitivity score (UT-SCC-81 [6]; [16]): 0 DSS
- drug sensitivity score (UT-SCC-81 [6]; [17]): 0 DSS
- drug sensitivity score (UT-SCC-81 [6]; [18]): 0 DSS
- drug sensitivity score (UT-SCC-81 [6]; [19]): 0 DSS
- drug sensitivity score (UT-SCC-8 [7]; [15]): 0 DSS
- drug sensitivity score (UT-SCC-8 [7]; [16]): 0.6 ± 0.66 DSS
- drug sensitivity score (UT-SCC-8 [7]; [17]): 0 DSS
- drug sensitivity score (UT-SCC-8 [7]; [18]): 0.133 ± 0.15 DSS
- drug sensitivity score (UT-SCC-8 [7]; [19]): 0 DSS
